According to ChEMBL document CHEMBL1201862, “PubChem BioAssay data set” (2004):
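96-well plates; 48 h exposure; 5 concentrations. Endpoints by linear interpolation between flanking doses. Not reached: highest tested concentration assigned. GI50 is the concentration that inhibits growth by half.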 The source made the active and inactive calls. Rule as the data show it: active = GI50 up to about 1.1 µM and inactive = higher.

Experiments:
Experiment in all cases: NCI tumour cell line growth inhibition, 48 h
[1] = system: NCI/ADR-RES
[2] = system: LOX IMVI
[3] = system: M14
[4] = system: 786-0
[5] = system: HCT-15
[6] = system: UACC-257
[7] = system: SF-295
[8] = system: ACHN
[9] = system: U-251
[10] = system: MDA-MB-231
[11] = system: MDA-N
[12] = system: NCI-H226
[13] = system: K562
[14] = system: SNB-19
[15] = system: NCI-H522
[16] = system: NCI-H460

For `COC(=O)C1(SC)C2CCC3C2CCC31` (configuration not stated), the GI50 [1] was > 100 µM (inactive), the GI50 [2] was > 100 µM (inactive) and the GI50 [3] was > 100 µM (inactive). The GI50 [4] was > 100 µM (inactive), the GI50 [5] was > 100 µM and the GI50 [6] was > 100 µM (inactive). For the same molecule, the GI50 [7] was > 100 µM (inactive), the GI50 [8] was > 100 µM (inactive) and the GI50 [9] was > 100 µM (inactive). For the same molecule, the GI50 [10] was > 100 µM (inactive), the GI50 [11] was > 100 µM (inactive) and the GI50 [12] was > 100 µM (inactive). The GI50 [13] was > 100 µM (inactive), the GI50 [14] was > 100 µM (inactive) and the GI50 [15] was > 100 µM (inactive). The GI50 [16] was > 100 µM (inactive).
In the case of `O=C(NN=C1NCCCN1)c1ccco1`, the GI50 [1] is reported as > 100 µM (inactive), the GI50 [2] is reported as > 100 µM (inactive) and the GI50 [3] is reported as > 100 µM (inactive). For the same molecule, the GI50 [4] was > 100 µM (inactive), the GI50 [5] was > 100 µM and the GI50 [6] was > 100 µM (inactive). For the same molecule, the GI50 [7] was > 100 µM (inactive), the GI50 [8] was > 100 µM (inactive) and the GI50 [9] was > 100 µM (inactive). The GI50 [10] was > 100 µM (inactive), the GI50 [11] was > 100 µM (inactive) and the GI50 [12] was > 100 µM (inactive). The GI50 [13] was > 100 µM (inactive), the GI50 [14] was > 100 µM (inactive) and the GI50 [15] was > 100 µM (inactive). The GI50 [16] was > 100 µM (inactive).
`Cc1ccc(S(=O)(=O)N2CCN(S(=O)(=O)c3ccc(C)cc3)CCN(S(=O)(=O)c3ccc(C)cc3)Cc3cc(Br)c(Br)cc3CN(S(=O)(=O)c3ccc(C)cc3)CC2)cc1` was tested, and the GI50 [1] was > 100 µM (inactive), the GI50 [2] was 79.4 µM (inactive) and the GI50 [3] was 19.1 µM (inactive). For the same molecule, the GI50 [4] was > 100 µM (inactive), the GI50 [5] was > 100 µM and the GI50 [6] was 37.2 µM (inactive). The GI50 [7] was > 100 µM (inactive), the GI50 [8] was > 100 µM (inactive) and the GI50 [9] was 82 µM (inactive). For the same molecule, the GI50 [10] was 23.3 µM (inactive), the GI50 [11] was 66.8 µM (inactive) and the GI50 [12] was 46.6 µM (inactive). For the same molecule, the GI50 [13] was > 100 µM (inactive), the GI50 [14] was 43.5 µM (inactive) and the GI50 [15] was 52 µM (inactive). For the same molecule, the GI50 [16] was > 100 µM (inactive).
`CC1(C)OC[C@@H](C[C@H](O)COCc2ccccc2)O1` was tested, and the GI50 [1] was > 100 µM (inactive), the GI50 [2] was > 100 µM (inactive) and the GI50 [3] was > 100 µM (inactive). The GI50 [4] was > 100 µM (inactive), the GI50 [5] was > 100 µM and the GI50 [6] was > 100 µM (inactive). For the same molecule, the GI50 [7] was > 100 µM (inactive), the GI50 [8] was > 100 µM (inactive) and the GI50 [9] was > 100 µM (inactive). The GI50 [10] was > 100 µM (inactive), the GI50 [11] was > 100 µM (inactive) and the GI50 [12] was > 100 µM (inactive). For the same molecule, the GI50 [13] was > 100 µM (inactive), the GI50 [14] was > 100 µM (inactive) and the GI50 [15] was > 100 µM (inactive). The GI50 [16] was > 100 µM (inactive).
In the case of `CCn1c(SCC(=O)NNC(=S)Nc2ccc(Cl)cc2)nc2ccccc2c1=O`, the GI50 [1] is reported as 47.1 µM (inactive), the GI50 [2] is reported as 30.1 µM (inactive) and the GI50 [3] is reported as > 100 µM (inactive). For the same molecule, the GI50 [4] was 45.1 µM (inactive), the GI50 [5] was 38.5 µM and the GI50 [6] was 53.2 µM (inactive). The GI50 [7] was 41.9 µM (inactive), the GI50 [8] was 47.9 µM (inactive) and the GI50 [9] was 46.9 µM (inactive). The GI50 [10] was > 100 µM (inactive), the GI50 [11] was 55.3 µM (inactive) and the GI50 [12] was > 100 µM (inactive). For the same molecule, the GI50 [13] was 30.3 µM (inactive), the GI50 [14] was > 100 µM (inactive) and the GI50 [15] was 59 µM (inactive). The GI50 [16] was 49.8 µM (inactive).
In the case of `CCN(CC)CCNC(=O)c1cn2c(ccc3sc4ccccc4c(=O)c32)n1`, the GI50 [1] is reported as 11.2 µM (inactive), the GI50 [2] is reported as 9.18 µM (inactive) and the GI50 [3] is reported as 15.1 µM (inactive). The GI50 [4] was 4.1 µM (inactive), the GI50 [5] was 5.21 µM and the GI50 [6] was 14.3 µM (inactive). The GI50 [7] was 10.5 µM (inactive), the GI50 [8] was 3.64 µM (inactive) and the GI50 [9] was 13.7 µM (inactive). The GI50 [10] was 8.95 µM (inactive), the GI50 [11] was 14.1 µM (inactive) and the GI50 [12] was 13.3 µM (inactive). The GI50 [13] was 6.28 µM (inactive), the GI50 [14] was 11.5 µM (inactive) and the GI50 [15] was 9.16 µM (inactive). The GI50 [16] was 1.03 µM (active).
`COC(=O)[C@@]12CC3CN(Cc4c1[nH]c1ccccc41)C2CC3=O` was tested, and the GI50 [1] was > 100 µM (inactive), the GI50 [2] was > 100 µM (inactive) and the GI50 [3] was > 100 µM (inactive). For the same molecule, the GI50 [4] was > 100 µM (inactive), the GI50 [5] was > 100 µM and the GI50 [6] was > 100 µM (inactive). For the same molecule, the GI50 [7] was > 100 µM (inactive), the GI50 [8] was > 100 µM (inactive) and the GI50 [9] was > 100 µM (inactive). The GI50 [10] was > 100 µM (inactive), the GI50 [11] was > 100 µM (inactive) and the GI50 [12] was > 100 µM (inactive). The GI50 [13] was > 100 µM (inactive), the GI50 [14] was > 100 µM (inactive) and the GI50 [15] was > 100 µM (inactive). For the same molecule, the GI50 [16] was > 100 µM (inactive).
